Experimental data as given in patent publication US20010049372A1, “Antiviral nucleoside analogues” (BioChem Pharma Inc., priority 1998, published 2001).
Where two headings read alike, the source gives them in different places.

Columns and labels:
[1] = Cellular toxicity by WST-1 staining; format: cell-based; details: human, CBMCs, Table 4, day 7, read-out: CC50 (μM) WST-1 CBMC
Experimental: (§1) The cellular toxicity of the compounds were assessed on various cells using [^3H]-thymidine uptake. Various cells, including Molt-4, HT1080, DU-145, HepG-2 and HSF, were plated at a concentration of 1-2×10^3 cells per well (96 well plates). After a 24 hr incubation period, 10-fold serial diluted compounds (b 10^−4 M to 10^−10 M) were added to the culture medium and the cells were further incubated for 72 hrs. [^3H]-thymidine was added during the final 18 hr incubation period. After incubation with the [^3H]-thymidine, the cells were washed once with PBS, treated with trypsin if the cells were adherent, and then resuspended in water (hypotonic lysing of cells). The cellular extract was applied directly to a Tomtec Harvester 96. Using this instrument the extracted DNA is adsorbed onto filters, washed and the incorporated [^3H]-thymidine is then counted. The 50% cytotoxic concentration (CC50) was determined by comparing the radioactive counts per minute of the samples in the presence of the compounds against the control. The cellular toxicity of the compounds was also tested by WST-1 staining through assessing proliferation of MT-2, H9, Jurkat, U937, and CBMCs. The established cell lines were cultured in RPMI medium in 96-well plates at a density of 5×10^4 cells/well while CBMCs were plated at a concentration of 0.5×10^6/well. A 10-fold serial diluted (10^−4-10^−7 M) compound was added at day zero. At day 4, the cells were passaged by changing half medium containing appropriately diluted compound. The cell activities were assessed at day 7 using the WST-1 reagent (Boehringer Mannheim) following the protocol provided by the supplier.
In the WST-1 staining experiments, cell lines were cultured in RPMI medium in 96-well plates at a density of 5×10^4 cells/well. CBMCs were plated at a concentration of 0.5×10^6/well. Compounds (10^−4-10^−7 M) were added at day zero. Cell viability was assessed on day 7 using the WST-1 reagent (Boehringer Mannheim) following the protocol provided by the supplier.

HIV-1IIIB = assay: Anti-HIV-1 antiviral assay with HIV-1IIIB in various cell types (RT activity); format: cell-based
Experimental: (§2) ANTIVIRAL ASSAYS. The anti-HIV-1 activity of the compound A (−) were assessed by employing HIV-1IIIB in a variety of cell types as previously described (Gu et al., 1992, 1994, 1999; Rando et al., 1995; Salomon et al., 1994). Briefly, cells were incubated with virus at a multiplicity of infection (MOI) of 0.005 for T cell assays and an MOI of 0.5 for monocytic cell assays for 3 hrs. Unbound virus was then removed by washing the cells, followed by seeding the cells into a 96-well plate. The infected cells were cultured in the presence of a serial concentrations of the test compound for 5-7 days. The anti-HIV-1 efficacy was determined by testing for HIV-1 RT activity or p24 level in the cell culture supernatants. All assays were performed in duplicate. Zidovudine and/or lamivudine were used as controls in each experiment.
Activity of the compound A (−) against HIV-1 in various cells. Anti-HIV-1 activity of the compound A (−) were tested in different types of cells, including human peripheral […] cells (PBMCs), T-cell (MT-2 and MT-4) and monocytic cell (U937) lines. The compound A (−) had submicromolar EC50s against HIV-1IIIB in different types of cells tested (Table 2).

PBMCs = assay: Cellular toxicity by [3H]-thymidine uptake; format: cell-based, human; details: Table 4; 72 hrs
Experimental: (§3) Cellular toxicity was assessed by [^3H]thymidine uptake (de Muys et al. 1999) and WST-1 staining. In the [^3H]thymidine uptake experiments, Molt-4, HT1080, DU-145, HepG2 and HSF, were plated at a concentration of 1-2×10^3 cells per well (96 well plates). PHA-stimulated PBMCs were cultured at a concentration of 4×10^4 cells per well. Following a 24 hr pre-incubation period, test compounds (10^−4 M to 10^−10 M) were added and the cells were incubated for an additional 72 hrs. [^3H]thymidine was added during the final 18 hr incubation period. The cells were then washed once with PBS, treated with trypsin if the cells were adherent, and resuspended in water (hypotonic lysing of cells). The cellular extract was applied directly to a Tomtec Harvester 96. The 50% cytotoxic concentration (CC50) was determined by comparing the radioactive counts per minute obtained from drug-tested samples to those obtained from the control (untreated) cells.

[2] = Cellular toxicity by [3H]-thymidine uptake; format: cell-based, human; details: human, Table 14, PHA-stimulated PBMCs, read-out: CC50 (μM) [^3H]TTP incorporation in: PBMC
Experimental: as §3

[3] = Cellular toxicity by [3H]-thymidine uptake; format: cell-based; details: human
Experimental: as §1, §3

105/F (zidovudine^R) = assay: Drug-resistant clinical isolates in PBMCs (p24); format: cell-based, HIV-1; details: Human immunodeficiency virus 1, PBMC
Experimental: as §2
(§4) Clinical strains were isolated from PBMCs of HIV-1 infected individuals through co-culture with PBMCs from normal dornors. To determine the RT genotype of the HIV-1 clinical isolates, the proviral DNA was extracted from infected CD4^+ T-cells or PBMCs and the complete RT coding regions were amplified by PCR as previously reported (Gu et al 1992). The PCR product was purified and then directly sequenced using primer RTS (5′-CCAAAAGTTAAACAATGGC-3′) which is located at the 5′ portion of the RT coding region (nucleotide 2603-2621 of HXB2-D coordinates). Antiviral activity was evaluated as described in example 10.

105/A (wt) = assay: Drug-resistant clinical isolates in PBMCs (p24); format: cell-based, HIV-1; details: Human immunodeficiency virus 1, PBMC
Experimental: as §2, §4

CCR15 (Lamivudine^R) = assay: Drug-resistant clinical isolates in PBMCs (p24); format: cell-based, HIV-1; details: Human immunodeficiency virus 1, PBMC
Experimental: as §2, §4

CCR18 (Lamivudine^R) = assay: Drug-resistant clinical isolates in PBMCs (p24); format: cell-based, HIV-1; details: Human immunodeficiency virus 1, PBMC
Experimental: as §2, §4

CCR19 (Lamivudine^R) = assay: Drug-resistant clinical isolates in PBMCs (p24); format: cell-based, HIV-1; details: Human immunodeficiency virus 1, PBMC
Experimental: as §2, §4

NNRTI^R = assay: Recombinant drug resistant HIV-1 variants (RT activity); format: cell-based; details: Human immunodeficiency virus 1
Experimental: as §2
(§5) Recombinant HIV-1 variants were prepared by introducing the designed mutations into HXB2-D by site-directed mutagenesis as described (Gu et al. 1992, 1994). The virus stocks were prepared by transfecting MT-4 cells with infectious viral DNA constructs. Antiviral activity of the compound A (−) was evaluated as described in example 10.

HXB2-D (wt) = assay: Recombinant HIV-1 variants (RT activity); format: cell-based; details: Human immunodeficiency virus 1, HXB2
Experimental: as §2, §5

PI^R = assay: Recombinant drug resistant HIV-1 variants (RT activity); format: cell-based; details: Human immunodeficiency virus 1
Experimental: as §2, §5

[4] = Human immunodeficiency virus 1, MT2, HIV-1IIIB, MT-2 cells, determined by RT activity, read-out: EC50 (μM) ± S.D. in MT-2 cells

| Compound | EC50 (HIV-1IIIB; [4]) [µM] | IC50 (105/F (zidovudine^R)) [µM] | IC50 (105/A (wt)) [µM] | IC50 (CCR15 (Lamivudine^R)) [µM] | IC50 (CCR18 (Lamivudine^R)) [µM] | IC50 (CCR19 (Lamivudine^R)) [µM] | other results |
| --- | --- | --- | --- | --- | --- | --- | --- |
| Nc1ccn([C@H]2CC[C@@H](CO)O2)c(=O)n1 [Zalcitabine, zalcitabine] | 0.05 |  |  |  |  |  | CC50 at 7 days [1]: 29 µM; CC50 (μM) [^3H-]TTP incorporation in: PBMC (PBMCs): 50/15; CC50 at 72 h [2]: 35.5 µM; CC50 at 72 h ([3]; DU-145 cells, Table 4, read-out: CC50 (μM) [^3H-]TTP incorporation in: U-145): 5 µM; CC50 at 72 h ([3]; DU-145 cells, Table 14, read-out: CC50 (μM) [^3H]TTP incorporation in: U145): 3.5 µM; CC50 at 72 h ([3]; HSF cells, Table 14, read-out: CC50 (μM) [^3H]TTP incorporation in: HSF): 2 µM; CC50 at 72 h ([3]; HT1080 cells, Table 4, read-out: CC50 (μM) [^3H-]TTP incorporation in: HT1080): 2 µM; CC50 at 72 h ([3]; HT1080 cells, Table 14, read-out: CC50 (μM) [^3H]TTP incorporation in: HT800): 2.5 µM; CC50 at 72 h ([3]; HepG2 cells, Table 4, read-out: CC50 (μM) [^3H-]TTP incorporation in: HepG2): 7 µM; CC50 at 72 h ([3]; HepG2 cells, Table 14, read-out: CC50 (μM) [^3H]TTP incorporation in: HepG2): 6.5 µM; CC50 at 72 h ([3]; Molt-4 cells, Table 4, read-out: CC50 (μM) [^3H-]TTP incorporation in: Molt-4): 2 µM; CC50 at 72 h ([3]; Molt-4 cells, Table 14, read-out: CC50 (μM) [^3H]TTP incorporation in: Molt4): 1 µM |
| Cc1cn([C@H]2C=C[C@@H](CO)O2)c(=O)[nH]c1=O [Stavudine, stavudine] |  | 0.12 | 0.063 | 0.06 | 0.049 | 0.05 | EC50 (HIV-1IIIB; Human immunodeficiency virus 1, MT2, read-out: EC50 (μM) ± S.D. in MT-2 cells): 0.38 ± 0.26 µM |
| Nc1nc(NC2CC2)c2ncn([C@H]3C=C[C@@H](CO)C3)c2n1 [Abacavir, abacavir] | 0.1 | 0.07 | < 0.03 | 0.22 | 1.3 | 0.58 |  |
| Cc1ccnc2c1NC(=O)c1cccnc1N2C1CC1 [nevirapine] |  |  |  |  |  |  | EC50 (NNRTI^R): > 10 µM |
| CC(C)(C)NC(=O)[C@@H]1C[C@@H]2CCCC[C@@H]2CN1C[C@@H](O)[C@H](Cc1ccccc1)NC(=O)[C@H](CC(N)=O)NC(=O)c1ccc2ccccc2n1 [saquinavir] |  |  |  |  |  |  | EC50 (HXB2-D (wt)): 0.0015 µM; EC50 (PI^R): 0.028 µM |
| Nc1ncnc2c1ncn2CCOCP(=O)(O)O [Adefovir, adefovir] |  | 7 | 2 | 0.8 | 2.1 | 2.3 |  |
